Measured values: publication PMC6160541 (Frontiers in Chemistry, 2018)
Like-named read-outs stand apart in the source and are kept apart here.

How the values were obtained:
MCF-7 = test: MTT cytotoxicity assay, MCF-7; type: cell-based, human; settings: 48 h
Method: (§1) We evaluated the cytotoxicity of 1c-6c, 1d-7d and of the positive control 1a-5a against a panel of human cancer cells using MTT (3-(4,5-dimethylthiazol-2-yl)-2,5-diphenyltetrazolium bromide) assay. The IC50 values were calculated based on three parallel experiments.
(§2) Cisplatin and oxaliplatin were purchased from Yurui Chemical Co. Ltd. (Shanghai, China). All of the other chemicals were obtained from commercial suppliers, such as Alfa […]
(§3) IonSpec QFT mass spectrometer with ESI ionization. 3-(4,5-dimethylthiazol-2-yl) […]
(§4) Phosphate-buffered saline (PBS) contains 137 mM
(§5) NaCl, 2.7 mM KCl, 10 mM Na2HPO4 and 2 mM KH2PO4. Fetal bovine serum (FBS), 0.25% trypsin/EDTA solution, and penicillin-streptomycin solution were purchased from […]
(§6) Invitrogen (Grand Island, NY, USA). […]
(§7) HeLa (cervical carcinoma cell line), MCF-7 (breast gland adenocarcinoma), LNCaP and PC3 (prostatic cancer), HepG-2 (hepatocellular carcinoma), A549 and A549R (lung carcinoma) were used for the MTT […]
(§8) In Vitro Cellular Cytotoxicity Assays
(§9) Cells seeded in 96-well plates were incubated in a 5% CO2 atmosphere in 100 µL of complete medium at 37 ℃ for 24 h. Then, 100 µL of freshly prepared culture medium containing drugs at different concentrations was added and incubated for another 48 h.
(§10) MTT (5 mg/mL, 20 µL) was added and incubated for 3 h. Finally, the medium was removed, and DMSO (150 µL) was added. The absorbance was measured at 570 nm using a Bio-Rad 680 microplate reader. The IC50 values were calculated using GraphPad […]
(§11) Prism software. […]

HepG-2 = test: MTT cytotoxicity assay, HepG-2; type: cell-based, human; settings: 48 h
Method: as §1, §2, §3, §4, §5, §6, §7, §8, §9, §10, §11

human cancer cells = test: MTT cytotoxicity, summary over panel of human cancer cells; type: cell-based; settings: range over A549R, LnCaP, PC3
Method: as §1
(§12) Scheme 9. Synthetic route of 38b. Conditions and reagents: (a) Ac2O and NaOAc; (b) TMSN3, BF3OEt2, and DCM; (c) MeONa and MeOH rt overnight; (d) BnBr, NaH, and DMF overnight; (e) […]
(§13) Preparation of 46b and 47b
(§14) Compounds 46b (38%) and 47b (45%) were prepared according to the procedure described for compounds 20b and 21b, respectively.
(§15) Compound 48b (45%) was prepared according to the procedure described for compound […]
In Vitro Cellular Cytotoxicity Assays […]
(§16) MTT (5 mg/mL, 20 µL) was added and incubated for 3 h. […] The absorbance was measured at 570 nm using a Bio-Rad 680 microplate reader. The IC50 values were calculated using GraphPad Prism software. […]
(§17) For cytotoxicity assays using the GLUT1 inhibitor 4,6-O-ethylidene-α-D-glucose (EDG), phloretin and the OCT2 inhibitor Ctd., a similar procedure as described above was followed except that MCF-7 cells (3500 cells/well) were seeded on a 96 well plate in 100 µL of RPMI and incubated for 24 h at 37 °C. […] The cytotoxicity profiles of the compounds were evaluated using the MTT assay. […]

A549R = test: MTT cytotoxicity assay, A549R (cisplatin-resistant); type: cell-based, human; settings: for IC50: MTT, 48 h
Method: as §1, §2, §3, §4, §5, §6, §7, §8, §9, §10, §11

A549 = test: MTT cytotoxicity assay, A549; type: cell-based, human; settings: 48 h
Method: as §1, §2, §3, §4, §5, §6, §7, §8, §9, §10, §11

LNCaP = test: MTT cytotoxicity assay, LNCaP; type: cell-based, human; settings: 48 h
Method: as §1, §2, §3, §4, §5, §6, §7, §8, §9, §10, §11

HeLa = test: MTT cytotoxicity assay, HeLa; type: cell-based, human; settings: 48 h
Method: as §1, §2, §3, §4, §5, §6, §7, §8, §9, §10, §11

MCF-7 cells = test: MTT cytotoxicity with GLUT1 inhibitors (EDG, phloretin) and OCT2 inhibitor (Ctd.) in MCF-7 cells; type: cell-based, human; settings: for effect of EDG and phloretin on IC50 values: MCF-7
Method: For cytotoxicity assays, the GLUT1 inhibitors EDG (1) and phloretin (2), the OCT2 inhibitor Ctd. (cimetidine) (3), and the mixture of EDG and Ctd.(4) were selected to undergo a similar procedure as antitumor activity in vitro. MCF-7 cells were seeded on a 96 well plate in 100 μL of RPMI and were incubated for 24 h at 37°C, and EDG-containing RPMI medium, phloretin-containing RPMI medium and Ctd.-containing RPMI medium were used to render the serial dilution of the concentrated solutions of the platinum compounds, and 100 μL/well was added (resulting in final inhibitor concentrations of 75 mM, 100 μM and 3 mM). The cytotoxicity profiles of the compounds were evaluated using MTT assay. […]
as §8, §9
as §10, with “GraphPad Prism software. Technical repetitions and independent experiments were based on three” for “GraphPad”
For cytotoxicity assays using the GLUT1 inhibitor 4,6-O-ethylidene-α-D-glucose (EDG), phloretin and the OCT2 inhibitor Ctd., a similar procedure as described above was followed except that MCF-7 cells (3500 cells/well) were seeded on a 96 well plate in 100 µL of RPMI and incubated for 24 h at 37 °C. EDG, phloretin and Ctd. containing RPMI medium were used for serial dilution of the concentrated solutions of the platinum compounds, and 100 µL/well were added (resulting in final inhibitor concentrations of 75 mM, 100 µM and 3 mM, respectively). The cytotoxicity profiles of the compounds were evaluated using the MTT assay. […]

PC3 = test: MTT cytotoxicity assay, PC3; type: cell-based, human; settings: 48 h
Method: as §1, §2, §3, §4, §5, §6, §7, §8, §9, §10, §11

[1] = Stability in whole human blood; type: in vitro ADME
Description: (§18) One of the advantages of inert Pt(IV) prodrugs is their enhanced stability in RPMI 1640 and whole human blood.

3T3 = test: Viability of normal cells 3T3, 48 h incubation assay; type: cell-based
Method: (§19) An ideal anticancer compound should be selective for cancer cells over normal healthy cells, thereby mitigating the undesired toxic side effects associated with chemotherapy.
as §12, §13, §14, §15, §8
(§20) Cells seeded in 96-well plates were incubated in a 5% CO2 atmosphere in 100 µL of complete medium at 37 ℃ for 24 h. […]
as §16, §17

Stability in RPMI 1640 = type: physicochemical
Description: as §18

293T = test: Viability of normal cells 293T, 48 h incubation assay; type: cell-based
Method: as §19, §12, §13, §14, §15, §8, §20, §16, §17

Compound	IC50 (MCF-7) [µM]	IC50 (HepG-2) [µM]	IC50 (A549R) [µM]	IC50 (A549) [µM]	IC50 (LNCaP) [µM]	IC50 (HeLa) [µM]	IC50 (PC3) [µM]	RF: Resistance factor = IC50(A549R)/IC50(A549) (A549R)	also measured
N.N.[Cl][Pt][Cl] [1a, cisplatin, reference compound]	2.28 ± 0.56	3.94 ± 0.39	35.8 ± 1.69	10.8 ± 1.98	23.8 ± 0.89	0.8 ± 0.93	22.9 ± 1.45	–	IC50 (human cancer cells): 16.8 to 39.7 µM; effect of EDG and phloretin on IC50 values (MCF-7 cells): not greatly different
CC(=O)OC[C@H]1O[C@@H](O[C@H]2[C@H](OC(C)=O)[C@@H](OC(C)=O)[C@H](NC(=O)CCC(=O)[O][Pt-2]([NH3+])([NH3+])([OH])([Cl])[Cl])O[C@@H]2COC(C)=O)[C@H](OC(C)=O)[C@@H](OC(C)=O)[C@H]1OC(C)=O [1c]	24.2 ± 1.44	11.6 ± 1.58	4.26 ± 1.9	36.4 ± 1.39	> 100	18.2 ± 1.01	> 100	0.12	–
N.N.[Cl-].[Cl-].[OH-].[OH-].[Pt+4] [2a, reference compound]	27 ± 0.34	50 ± 1.79	13.4 ± 2.57	> 100	50.8 ± 0.79	11.4 ± 1.56	61.4 ± 0.67	–	–
CC(=O)OC[C@H]1O[C@@H](O[C@H]2[C@H](OC(C)=O)[C@@H](OC(C)=O)[C@H](NC(=O)CCC(=O)[O][Pt-2]34([OH])([NH2+][C@@H]5CCCC[C@H]5[NH2+]3)[O]C(=O)C(=O)[O]4)O[C@@H]2COC(C)=O)[C@H](OC(C)=O)[C@@H](OC(C)=O)[C@H]1OC(C)=O [2c]	8.29 ± 1.87	59.3 ± 1.49	8.37 ± 1.9	14.5 ± 1.47	4.7 ± 0.89	4.05 ± 0.87	> 100	0.58	–
O=C1[O][Pt]2([NH][C@@H]3CCCC[C@H]3[NH]2)[O]C1=O [3a, oxaliplatin, reference compound]	5.22 ± 2.78	6.64 ± 1.79	39.7 ± 0.69	10.1 ± 1.2	16.8 ± 0.34	3.96 ± 0.75	39.7 ± 0.76	3.94	IC50 (human cancer cells): 16.8 to 39.7 µM; effect of EDG and phloretin on IC50 values (MCF-7 cells): not greatly different
CC(=O)OC[C@H]1O[C@@H](NC(=O)CCC(=O)[O][Pt-2]([NH3+])([NH3+])([OH])([Cl])[Cl])[C@H](OC(C)=O)[C@@H](OC(C)=O)[C@@H]1O[C@H]1O[C@H](COC(C)=O)[C@@H](OC(C)=O)[C@H](OC(C)=O)[C@H]1OC(C)=O [3c]	27.2 ± 1.56	3.27 ± 1.67	14.6 ± 1.78	3.38 ± 1.49	> 100	0.91 ± 0.54	1.13 ± 0.45	4.33	–
N.N.O=C(CCC(=O)[O][Pt]([OH])([Cl])[Cl])NCCO[C@H]1O[C@H](CO)[C@@H](O)[C@H](O)[C@@H]1O [3d]	45.1 ± 0.77	13.2 ± 1.38	> 100	1.9 ± 2.78	> 100	3.01 ± 0.67	> 100	–	–
NC1CCCCC1N.O=C1[O][Pt]([OH])([OH])[O]C1=O [4a, reference compound]	> 100	> 100	29.7 ± 0.64	> 100	23 ± 0.89	15.8 ± 0.34	> 100	–	–
CC(=O)OC[C@H]1O[C@@H](NC(=O)CCC(=O)[O][Pt-2]23([OH])([NH2+][C@@H]4CCCC[C@H]4[NH2+]2)[O]C(=O)C(=O)[O]3)[C@H](OC(C)=O)[C@@H](OC(C)=O)[C@@H]1O[C@H]1O[C@H](COC(C)=O)[C@@H](OC(C)=O)[C@H](OC(C)=O)[C@H]1OC(C)=O [4c]	7.21 ± 0.78	10.7 ± 1.49	25.2 ± 1.79	14.3 ± 1.48	> 100	> 100	22.9 ± 0.78	–	–
CC(=O)OC[C@H]1O[C@@H](NC(=O)CCC(=O)[O][Pt-2]23([OH])([NH2+][C@@H]4CCCC[C@H]4[NH2+]2)[O]C(=O)C(=O)[O]3)[C@H](OC(C)=O)[C@@H](OC(C)=O)[C@H]1OC(C)=O [5c]	17.89 ± 0.12	> 100	74.1 ± 1.67	17.5 ± 0.89	22.1 ± 1.45	32.2 ± 0.34	7.45 ± 0.56	4.24	–
O=C(CCC(=O)[O][Pt-2]12([OH])([NH2+][C@@H]3CCCC[C@H]3[NH2+]1)[O]C(=O)C(=O)[O]2)NCCCO[C@@H]1O[C@H](CO)[C@H](O)[C@H](O)[C@H]1O [5d]	0.35	1.77 ± 1.39	5.67 ± 1.69	2.29 ± 1.78	12 ± 0.79	0.58 ± 0.78	6.27 ± 1.45	–	–
CC(=O)OC[C@H]1O[C@H](NC(=O)CCC(=O)[O][Pt-2]23([OH])([NH2+][C@@H]4CCCC[C@H]4[NH2+]2)[O]C(=O)C(=O)[O]3)[C@@H](OC(C)=O)[C@@H](OC(C)=O)[C@@H]1OC(C)=O [6c]	20.8 ± 0.45	50.9 ± 1.46	> 100	23.8 ± 0.78	20.1 ± 1.78	16.8 ± 0.45	7.06 ± 0.56	–	–
O=C(CCC(=O)[O][Pt-2]12([OH])([NH2+][C@@H]3CCCC[C@H]3[NH2+]1)[O]C(=O)C(=O)[O]2)NC[C@H]1OC(O)[C@H](O)[C@@H](O)[C@@H]1O (stereo partly shown) [6d]	0.89 ± 1.34	4.1 ± 1.46	47 ± 1.69	29.9 ± 1.78	20 ± 0.79	2.88 ± 0.67	66.6 ± 1.45	–	t1/2 in whole human blood [1]: ~2.5 h; IC50 (3T3): > 100 µM; half-life (Stability in RPMI 1640; RPMI 1640): up to 170 h; remained unchanged (Stability in RPMI 1640; RPMI 1640, after 48 h): 66%; decomposition (Stability in RPMI 1640; RPMI medium, up to 12 h): No significant decomposition; IC50 with EDG, folds higher than 48 h IC50 (MCF-7 cells; MCF-7, EDG): 36 fold; IC50 with mixture of EDG and Ctd., folds higher than 48 h IC50 (MCF-7 cells; MCF-7, EDG + Ctd.): 95 fold; IC50 (MCF-7 cells; MCF-7, GLUT1 inhibitor EDG 75 mM, read-out: IC50 with EDG): 31.8 µM; IC50 (MCF-7 cells; MCF-7, GLUT1 inhibitor phloretin 100 μM, read-out: IC50 with phloretin): 38.7 µM; IC50 with Ctd., folds higher than 48 h IC50 (MCF-7 cells; MCF-7, OCT2 inhibitor Ctd. 3 mM): 82 fold; IC50 with phloretin, folds higher than 48 h IC50 (MCF-7 cells; MCF-7, phloretin): 44 fold; IC50 (293T): 12.1 µM
